This passage reports IC50, solubility and Cmax results from patent US11613527B2, “Enzyme inhibitors” (KalVista Pharmaceuticals Limited, priority 2019, dated 2023).

Structures are written as SMILES. ≈ marks a conversion by molar mass, not a printed value. Bounds are passed on as bounds.

One series concerns the target Human plasma kallikrein (Homo sapiens (Human), UniProt P03952). Put plainly: Determination of the IC50 for plasma kallikrein (fluorogenic substrate H-DPro-Phe-Arg-AFC). Type of series: biochemical. The note with it: class symbols A-D, read-out: IC50 (human PKal). A digest of the protocol:
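IC50 values come from initial rates, monitored as the change in absorbance at 410 nm, of residual enzyme activity. Test compound was present at various concentrations with the fluorogenic substrate H-DPro-Phe-Arg-AFC, and the reaction was run at 25° C.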

For the next series, the target named is Human KLK1 (Homo sapiens (Human), UniProt P06870). The experiment in a line: Determination of the IC50 for KLK1 (fluorogenic substrate H-DVal-Leu-Arg-AFC). The format is biochemical. The procedure, abridged: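 Inhibition read as initial rate via optical absorbance change at 410 nm, giving IC50. Reactions combined human KLK1, the substrate H-DVal-Leu-Arg-AFC and varied compound concentrations at 25° C.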

The target in a further series is Human FXIa (Homo sapiens (Human), UniProt P03951). The experiment in a line: Determination of the % inhibition for FXIa (fluorogenic substrate Z-Gly-Pro-Arg-AFC; 40 μM or IC50). The format is biochemical. The procedure, abridged:
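Inhibition measured from initial reaction rate, followed as absorbance change at 410 nm, with substrate Z-Gly-Pro-Arg-AFC at 25 °C. Compound tested at a single 40 μM dose for percent inhibition, or across several concentrations to derive IC50 against human FXIa.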

Series [1] is described as follows: Solubility after 24 hrs in Fasted State Simulated Intestinal Fluid (FaSSIF). The note with it: Fasted State Simulated Intestinal Fluid (FaSSIF), thermodynamic from solid, 24 hrs at 37° C., nominal concentration 1 mg/mL (as free base). Type of series: physicochemical. The procedure, abridged: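 Compound at nominal 1 mg/mL (as free base) in freshly prepared FaSSIF, shaken 24 h at 37 °C, ~500 rpm. After centrifugation at 15,000 g for 10 min at 37 °C, dissolved concentration measured by LCMS.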

Series [2] in a line: Pharmacokinetics following a single oral dose in male Sprague-Dawley rats. Type of series: in vivo. The note with it: rat, nominal 5 mg/kg in 10% DMSO/10% cremophor/80% SWFI, plasma. The procedure:
Pharmacokinetic studies of the compounds in Table 14 were performed to assess the pharmacokinetics following a single oral dose in male Sprague-Dawley rats. Two rats were given a single po dose of 5 mL/kg of a nominal 1 mg/mL (5 mg/kg) composition of test compound in 10% DMSO/10% cremophor/80% SWFI vehicle. Following dosing, blood samples were collected over a period of […]. Sample times were 5, 15 and 30 minutes then 1, 2, 4, 6, 8 and 12 hours. Following collection, blood samples were centrifuged and the plasma fraction analysed for concentration of test compound by LCMS.

Human FXIa, sequence (P03951 388-625): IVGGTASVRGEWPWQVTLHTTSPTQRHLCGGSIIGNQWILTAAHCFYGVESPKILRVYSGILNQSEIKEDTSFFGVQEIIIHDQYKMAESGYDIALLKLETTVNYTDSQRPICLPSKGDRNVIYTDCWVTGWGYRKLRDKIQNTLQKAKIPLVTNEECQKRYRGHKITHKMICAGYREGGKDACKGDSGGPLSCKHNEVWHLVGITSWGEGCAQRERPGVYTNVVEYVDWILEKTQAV
Human FXIa, sequence (P03951 19-387 partner): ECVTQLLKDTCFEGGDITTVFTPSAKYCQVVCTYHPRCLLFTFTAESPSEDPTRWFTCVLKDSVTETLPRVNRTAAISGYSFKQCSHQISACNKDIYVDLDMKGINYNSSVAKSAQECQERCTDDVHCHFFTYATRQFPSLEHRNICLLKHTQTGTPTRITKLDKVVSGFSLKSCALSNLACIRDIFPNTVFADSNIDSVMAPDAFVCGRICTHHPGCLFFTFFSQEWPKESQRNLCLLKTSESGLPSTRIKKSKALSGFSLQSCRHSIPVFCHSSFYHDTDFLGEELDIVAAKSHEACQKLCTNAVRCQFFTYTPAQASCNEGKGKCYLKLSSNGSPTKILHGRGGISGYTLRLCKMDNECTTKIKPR
Human plasma kallikrein, sequence (P03952 391-638): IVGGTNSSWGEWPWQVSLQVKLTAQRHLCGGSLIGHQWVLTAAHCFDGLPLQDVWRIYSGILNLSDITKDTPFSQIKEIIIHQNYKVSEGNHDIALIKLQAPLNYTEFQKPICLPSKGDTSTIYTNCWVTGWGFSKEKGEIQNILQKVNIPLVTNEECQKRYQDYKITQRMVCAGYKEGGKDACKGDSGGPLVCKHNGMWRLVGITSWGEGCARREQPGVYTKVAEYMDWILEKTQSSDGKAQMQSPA
Human plasma kallikrein, sequence (P03952 20-390 partner): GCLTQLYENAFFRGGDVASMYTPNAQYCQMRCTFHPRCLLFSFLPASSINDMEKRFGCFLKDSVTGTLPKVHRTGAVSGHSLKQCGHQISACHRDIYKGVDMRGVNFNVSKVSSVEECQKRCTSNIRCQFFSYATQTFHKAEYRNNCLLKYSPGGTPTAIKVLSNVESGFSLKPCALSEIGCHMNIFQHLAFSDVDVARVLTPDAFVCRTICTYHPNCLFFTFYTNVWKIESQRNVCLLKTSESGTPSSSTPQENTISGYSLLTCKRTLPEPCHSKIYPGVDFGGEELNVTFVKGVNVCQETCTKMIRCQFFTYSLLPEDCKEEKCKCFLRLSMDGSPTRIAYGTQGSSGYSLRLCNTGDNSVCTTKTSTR
Human KLK1, sequence (P06870 25-262): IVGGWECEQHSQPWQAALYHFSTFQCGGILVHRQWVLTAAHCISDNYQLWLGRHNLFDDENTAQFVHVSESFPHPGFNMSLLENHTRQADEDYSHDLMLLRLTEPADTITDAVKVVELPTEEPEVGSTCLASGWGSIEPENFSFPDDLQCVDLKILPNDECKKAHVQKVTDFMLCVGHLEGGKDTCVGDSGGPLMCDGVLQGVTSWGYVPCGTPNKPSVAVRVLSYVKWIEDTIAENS

In the case of `COCc1nn(Cc2ccc3c(c2)CN(C)CC3)cc1C(=O)NCc1c(-n2cnc(C(F)(F)F)n2)ccc(OC)c1F` [Example 13, N-({2-fluoro-3-methoxy-6-[3-(trifluoromethyl)-1,2,4-triazol-1-yl]phenyl}methyl)-3-(methoxymethyl)-1-[(2-methyl-3,4-dihydro-1H-isoquinolin-7-yl)methyl]pyrazole-4-carboxamide], the IC50 on Human plasma kallikrein was below 0.01 µM; on Human KLK1 it was above 40 µM; at Human FXIa, above 40 µM. In addition, the concentration in solution in series [1] (solubility at 24 h) came to 860 µg/mL (≈ 1460 µM). The highest level in series [2] (Cmax) was 88 ng/mL.

In the case of `COCc1nn(Cc2ccc3c(c2)CN(C)CC3)cc1C(=O)NCc1c(-n2cnc(C(F)F)n2)ccc(OC)c1F` [Example 15, N-({6-[3-(difluoromethyl)-1,2,4-triazol-1-yl]-2-fluoro-3-methoxyphenyl}methyl)-3-(methoxymethyl)-1-[(2-methyl-3,4-dihydro-1H-isoquinolin-7-yl)methyl]pyrazole-4-carboxamide], the half-maximal inhibitory concentration (IC50) at Human plasma kallikrein is below 0.01 µM; against Human KLK1 it was above 40 µM; against Human FXIa, above 40 µM. Besides, in series [1], the solubility at 24 h is above 1000 µg/mL. Moreover, the concentration in series [2] peaked (Cmax) at 78 ng/mL.

Turning to `COCc1nn(Cc2ccc3c(c2)CN(C(C)C)CC3)cc1C(=O)NCc1c(-n2cnc(C(F)F)n2)ccc(OC)c1F` [Example 23, N-({6-[3-(difluoromethyl)-1,2,4-triazol-1-yl]-2-fluoro-3-methoxyphenyl}methyl)-1-[(2-isopropyl-3,4-dihydro-1H-isoquinolin-7-yl)methyl]-3-(methoxymethyl)pyrazole-4-carboxamide], the IC50 is below 0.01 µM at Human plasma kallikrein, above 40 µM against Human KLK1 and above 40 µM against Human FXIa. In series [1], this compound registered a solubility at 24 h of 870 µg/mL (≈ 1460 µM). Moreover, the Cmax in series [2] came out at 20 ng/mL.

Take `COCc1nn(Cc2ccc3c(c2)CN(C(C)C)CC3)cc1C(=O)NCc1c(-n2ccc(C#N)n2)ccc(OC)c1F` [Example 24, N-{[6-(3-cyanopyrazol-1-yl)-2-fluoro-3-methoxyphenyl]methyl}-1-[(2-isopropyl-3,4-dihydro-1H-isoquinolin-7-yl)methyl]-3-(methoxymethyl)pyrazole-4-carboxamide]: the IC50 on Human plasma kallikrein is below 0.01 µM; against Human KLK1 it was above 40 µM; on Human FXIa it was 23.8 µM. The compound further had a solubility at 24 h in series [1] of 730 µg/mL (≈ 1280 µM). In series [2], this compound gave a Cmax of 24 ng/mL.

`COCc1nn(Cc2ccc3c(c2)CCN(C(C)C)C3)cc1C(=O)NCc1c(-n2cc(C)nn2)ccc(OC)c1F` [Example 37, N-{[2-fluoro-3-methoxy-6-(4-methyl-1,2,3-triazol-1-yl)phenyl]methyl}-1-[(2-isopropyl-3,4-dihydro-1H-isoquinolin-6-yl)methyl]-3-(methoxymethyl)pyrazole-4-carboxamide]: the half-inhibitory concentration (IC50) at Human plasma kallikrein is below 0.01 µM; against Human KLK1 it was above 40 µM; on Human FXIa, above 40 µM. Moreover, in series [1], the solubility at 24 h is above 1000 µg/mL. In series [2], the highest level (Cmax) was 38 ng/mL.

On to `CCN1CCc2cc(Cn3cc(C(=O)NCc4c(-n5cc(C)nn5)ccc(OC)c4F)c(COC)n3)ccc2C1` [Example 38, 1-[(2-ethyl-3,4-dihydro-1H-isoquinolin-6-yl)methyl]-N-{[2-fluoro-3-methoxy-6-(4-methyl-1,2,3-triazol-1-yl)phenyl]methyl}-3-(methoxymethyl)pyrazole-4-carboxamide], for which the IC50 was below 0.01 µM at Human plasma kallikrein, above 40 µM against Human KLK1 and above 40 µM on Human FXIa. Besides, the concentration in solution in series [1] (solubility at 24 h) came to 740 µg/mL (≈ 1350 µM). The Cmax in series [2] is 51 ng/mL.

With `COCc1nn(Cc2ccc3c(c2)CCN(C(C)C)C3)cc1C(=O)NCc1c(-n2ccc(C#N)n2)ccc(OC)c1F` [Example 46, N-{[6-(3-cyanopyrazol-1-yl)-2-fluoro-3-methoxyphenyl]methyl}-1-[(2-isopropyl-3,4-dihydro-1H-isoquinolin-6-yl)methyl]-3-(methoxymethyl)pyrazole-4-carboxamide], the IC50 on Human plasma kallikrein is below 0.01 µM; on Human KLK1, above 40 µM; against Human FXIa, above 40 µM. The same compound returned a solubility at 24 h in series [1] above 1000 µg/mL. Also, the Cmax in series [2] was 34 ng/mL.

As to `COCc1nn(Cc2ccc3c(c2)CN(C)C3)cc1C(=O)NCc1c(-n2cc(C)nn2)ccc(OC)c1F` [Example 54, N-{[2-fluoro-3-methoxy-6-(4-methyl-1,2,3-triazol-1-yl)phenyl]methyl}-3-(methoxymethyl)-1-[(2-methyl-1,3-dihydroisoindol-5-yl)methyl]pyrazole-4-carboxamide], the IC50 was below 0.01 µM on Human plasma kallikrein, above 4 µM against Human KLK1 and above 4 µM against Human FXIa. The compound also registered a solubility at 24 h in series [1] of 820 µg/mL (≈ 1580 µM). Moreover, the peak level in series [2] (Cmax) was 154 ng/mL.

Turning to `COCc1nn(Cc2ccc3c(c2)CN(C)CC32CC2)cc1C(=O)NCc1c(-n2cc(C)nn2)ccc(OC)c1F` [Example 126, N-{[2-fluoro-3-methoxy-6-(4-methyl-1,2,3-triazol-1-yl)phenyl]methyl}-3-(methoxymethyl)-1-{2′-methyl-1′,3′-dihydrospiro[cyclopropane-1,4′-isoquinoline]-7′-ylmethyl}pyrazole-4-carboxamide], the IC50 at Human plasma kallikrein is below 0.01 µM; on Human KLK1, above 40 µM; against Human FXIa it was above 40 µM. Moreover, in series [1], the solubility at 24 h is 880 µg/mL (≈ 1570 µM). The same compound gave a Cmax in series [2] of 63 ng/mL.

For `COCc1nn(Cc2ccc3c(c2)CNCC32CC2)cc1C(=O)NCc1c(-n2cc(C)nn2)ccc(OC)c1F` [Example 127, 1-{2′,3′-dihydro-1′H-spiro[cyclopropane-1,4′-isoquinoline]-7′-ylmethyl}-N-{[2-fluoro-3-methoxy-6-(4-methyl-1,2,3-triazol-1-yl)phenyl]methyl}-3-(methoxymethyl)pyrazole-4-carboxamide], the half-maximal inhibitory concentration (IC50) on Human plasma kallikrein was below 0.01 µM; against Human KLK1, above 40 µM; against Human FXIa it was above 40 µM. The same compound came in with a solubility at 24 h in series [1] of 810 µg/mL (≈ 1480 µM). This compound also yielded a Cmax in series [2] of 9 ng/mL.

Broadly, the IC50 is the concentration that inhibits the measured activity by half. One may read the solubility as the concentration that dissolves in the medium under given conditions. Low readings indicate a poorly soluble substance, high ones a readily soluble substance. The term Cmax denotes the peak of the concentration-time curve.
